In series [1] the test system is TNF-α mRNA. As to the kind of experiment: TNF-α knockdown in human monocytes (branch DNA).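 Further: LPS-activated human CD14+ monocytes, TNF-α mRNA read by branched DNA assay and normalized to cypB mRNA, knockdown compared with random-sequence Qneg siRNA as negative control.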
Excerpt: For mRNA measurement, branch DNA technology from Genospectra (CA) was used according to manufacturer's specification. Human monocytes (CD14+) treated with LPS induce TNF-α-specific mRNA within approximately 2 hrs, followed by peak levels of TNF-α protein 2 hrs later. siRNAs were screened for knockdown activity by transfecting monocytes with siRNA candidate sequences using Lipofectamine 2000, treating infected cells with LPS, and measuring TNF-α mRNA levels approximately 16 hrs later.
To quantitate mRNA level in the cells, both house keeping gene (cypB) and target gene (TNF-α) mRNA were measured, and the reading for TNF-α was normalized with cypB to obtain relative luminescence unit.
Qneg represents a random siRNA sequence and functions as the negative control in these experiments.
The subject of series [2] is 9L/LacZ cells. Briefly: siRNA uptake by flow cytometry in 9L/LacZ cells. The format is cell-based, rat. The note with it: peptide/siRNA complex. In general terms: A flow cytometer gives signals particle by particle.
Description: Cells were plated the day before so that they were ˜50-80% confluent at time of transfection. For complexes, siRNA and peptide were diluted in Opti-MEM® media (Invitrogen), then mixed and allowed to complex 5-10 minutes before adding to cells washed with PBS. Final concentration of siRNA was 500 nM at each peptide concentration (2-50 μM). The conjugate, also diluted in Opti-MEM® media, was added to cells at final concentrations ranging from 62.5 nM to 500 nM. At 500 nM concentration, we also combined with 20% FBS just before adding to washed cells. Cells were transfected for 3 hours at 37° C., 5% CO2. Cells were washed with PBS, treated with trypsin and then analyzed by flow cytometry. siRNA uptake was measured by intensity of Cy5 fluorescence and cellular viability assessed by addition of propidium iodide.
Uptake was measured using 9L/lacZ cells transfected as described in Example 2. Cells were washed with PBS, treated with trypsin and then analyzed by flow cytometry. siRNA uptake was measured by intensity of FAM fluorescence and cellular viability assessed by addition of propidium iodide.
Series [3] has as its system interferon response markers (IL-1β, INF-α, IL-6, IL-8, IL-12, MIP-1α, IFN-γ, TNF-α). As to the kind of experiment: interferon responsiveness, marker protein ELISA. The class given is cell-based. The note with it: for Relative protein expression level of IFN-γ / Relative protein expression level of IL-12 / Relative protein expression level of INF-α: Lipofectamine transfection; for interferon response (ELISA): regardless of transfection reagent. As for the experimental part: Interferon responsiveness was assayed by ELISA (protein) and bDNA (mRNA levels).
For orientation: An ELISA detects its analyte on a solid surface through an enzyme-linked reagent.

Series [4] has as its system human TNF-α transgenic mice. Briefly: RA paw score in human TNF-α transgenic mice. The note with it: for RA progression by paw score at week 8 (FIG. 4): siRNA delivered with PN73.
Description: For human TNF-α animal disease models, two transgenic models were used. The tg197 mice were acquired from Pasteur Hellenic Institute (Athens, Greece), and the B6.SJL-Tg(TNF) N21 mice were purchased from Taconic, Inc. (Germantown, N.Y.). The genotypes of both human TNF-α transgenic mouse models were performed by suppliers. […] All treatments were by tail vein injection twice a week. […] A similar dose regimen was used for B6.SJL-Tg(TNF) N21 mice. Clinical scores were based on a previously described scoring system (2, 3) as follows: 0 (normal), 1 (edema or distortion of paw or ankle joints), 2 (distortion of paw and ankle joints), or 3 (ankylosis of wrist or ankle joints). The sum of all four paws was scored twice a week with a maximum score of 12 per mouse.
For Hellenic transgenic mice, RA scores were determined (blinded to treatment) using the following criteria: 0, normal; 1, edema or distortion of paw or ankle joints; 2 distortion of paw and ankle joints; 3, ankylosis of wrist or ankle joints.
Human NF-α expressing mice were purchase from the Hellenic Pasture Institute, Greece) at 5 weeks old. […] During the injection periods, plasma samples were collected for ELISA testing (R&D Systems, Cat#SSTA00C), and paw scores were taken twice a week as an accepted index of RA disease progression and therapeutic efficacy (Table 19).
Due to the difference in the starting point (some animals present with scores at earlier points), the scores have been adjusted to 0 for all animals in the experiments. Each paw is given a score between 0 and 3, with the highest score of 12, according to the following scoring index. • 0: Normal • 1: edema or distortion of paw or ankle joints • 2: distortion of paw and ankle joints • 3: ankylosis of wrist or ankle joints.
Setting [5] is: siRNA 4 nM complexed with 1.6 uM PN73.
Where [6] appears, read: siRNA 4 nM complexed with 1.6 uM PN509.
Setting [7] is: siRNA 20 nM complexed with 0.5 uM PN250.
[8] abbreviates: siRNA 20 nM complexed with 0.75 uM PN250.
[9] abbreviates: siRNA 20 nM complexed with 1 uM PN250.

Consider 23 substances from patent publication US20100113332A1, “METHOD OF TREATING AN INFLAMMATORY DISEASE BY DOUBLE STRANDED RIBONUCLEIC ACID” (NASTECH PHARMACEUTICAL COMPANY INC., priority 2004, published 2010).

Regarding “AACCAAUGCCCUCCUGGCCAA (siRNA; delivered as complex with delivery-enhancing peptide, further chemistry not given here) [LC14]”, the figures for the “KD (%) TNF-α” value in series [1] (setting [5]) and in series [1] (setting [6]) were 50.76% and 42.78%, respectively.

Regarding “AACCCAUGUGCUCCUCACCCA (siRNA; delivered as complex with delivery-enhancing peptide, further chemistry not given here) [LC8]”, the “KD (%) TNF-α” value was found to be 41.24% in series [1] (setting [5]) and 47.35% in series [1] (setting [6]).

For “AACCUCCUCUCUGCCAUCAAG (siRNA; delivered as complex with delivery-enhancing peptide, further chemistry not given here) [LC3]”, the “KD (%) TNF-α” value amounted to 23.17% in series [1] (setting [5]) and 30.14% in series [1] (setting [6]).

With “AACUGAAAGCAUGAUCCGGGA (siRNA; delivered as complex with delivery-enhancing peptide, further chemistry not given here) [LC4]”, the “KD (%) TNF-α” value is 26.67% in series [1] (setting [5]) and 22.71% in series [1] (setting [6]).

On to “AAGCCUGUAGCCCAUGUUGUA (siRNA; delivered as complex with delivery-enhancing peptide, further chemistry not given here) [LC19]”, for which the “KD (%) TNF-α” value is reported as 61.83% in series [1] (setting [5]) and 56.38% in series [1] (setting [6]).

On to “AAGCUCCAGUGGCUGAACCGC (siRNA; delivered as complex with delivery-enhancing peptide, further chemistry not given here) [LC9]”, for which the “KD (%) TNF-α” value in series [1] (setting [5]) came to 40.32%; in series [1] (setting [6]) it was 58.20%.

Take “AAGGGUGACCGACUCAGCGcU (siRNA; as printed in the source, key not given here) [LC6]”: the figures for the “KD (%) TNF-α” value in series [1] (setting [5]) and in series [1] (setting [6]) were 44.10% and 50.19%, respectively.

For “AAUCAGCCGCAUCGCCGUCUC (siRNA; delivered as complex with delivery-enhancing peptide, further chemistry not given here) [LC7]”, the results for the “KD (%) TNF-α” value in series [1] (setting [5]) and in series [1] (setting [6]) were 42.76% and 56.11%, respectively.

Consider “AAUCGGCCCGACUAUCUCGACUU (chemistry not given here) [LC1]”, for which the “KD (%) TNF-α” value in series [1] (setting [5]) was found to be 20.08%; in series [1] (setting [6]), 31.13%.

As for “AAUCUCGACUUUGCCGAGUCU (chemistry not given here) [LC5]”, the “KD (%) TNF-α” value in series [1] (setting [5]) is given as 46.78%; in series [1] (setting [6]), 34.93%.

As for “AAUGGCGUGGAGCUGAGAGAU (siRNA; delivered as complex with delivery-enhancing peptide, further chemistry not given here) [LC2]”, the “KD (%) TNF-α” value in series [1] (setting [5]) came out at 19.06%; in series [1] (setting [6]), 37.04%.

Regarding C(YGRKKRRQRRRG)2 [PN204], the “Percent Uptake LacZ Cells” value in series [2] is 83%.

For the substance “CCAGGGACCUCUCUCUAAU (siRNA; delivered as complex with delivery-enhancing peptide, further chemistry not given here) [TNF-4]”, the “KD (%) TNF-α” value in series [1] (setting [7]) was determined as 0.90%; in series [1] (setting [8]) it was 14.39%; in series [1] (setting [9]) it was 26.47%.

For the substance “CCGACUCAGCGCUGAGAUCAA (siRNA; chemistry not fully specified) [LC17]”, in series [3], the “Relative protein expression level of IFN-γ” value is given as “Background”, the “Relative protein expression level of IL-12” value is recorded as “Background”, the “Relative protein expression level of INF-α” value is on record as “Background” and the “interferon response (ELISA)” value was “no interferon response”. Also, the “KD (%) TNF-α” value in series [1] (setting [5]) amounted to 50.78%. Moreover, in series [1] (setting [6]), the “KD (%) TNF-α” value worked out at 48.94%. For the same substance, in series [4] (group TNF #6), the “Relative effect of siRNA, paw score” value was “Overall low paw score. YC12”.

On to “CCUCAGCCUCUUCUCCUUCCUGA (chemistry not given here) [LC12]”, for which the “KD (%) TNF-α” value in series [1] (setting [5]) is given as 40.61%; in series [1] (setting [6]), 17.03%.

On to “CUGAUUAAGUUGUCUAAACAA (siRNA; delivered as complex with delivery-enhancing peptide, further chemistry not given here) [LC16]”, for which the “KD (%) TNF-α” value in series [1] (setting [5]) was found to be 55.91%; in series [1] (setting [6]) it was 40.06%.

Take “CUUGUGAUUAUUUAUUAUUUA (siRNA; delivered as complex with delivery-enhancing peptide, further chemistry not given here) [LC18]”: the “KD (%) TNF-α” value came to 63.44% in series [1] (setting [5]) and 58.13% in series [1] (setting [6]).

Turning to “GCAGGUCUACUUUGGGAUC (siRNA; delivered as complex with delivery-enhancing peptide, further chemistry not given here) [YC18]”, the “KD (%) TNF-α” value in series [1] (setting [7]) was 20.72%; in series [1] (setting [8]), 17.82%; in series [1] (setting [9]) it was 24.66%.

Regarding “GCCCGACUAUCUCGACUUU (siRNA; delivered as complex with delivery-enhancing peptide, further chemistry not given here) [YC17]”, the “KD (%) TNF-α” value in series [1] (setting [7]) is 17.30%; in series [1] (setting [8]), 29.82%; in series [1] (setting [9]) it was 24.68%.

Regarding “GCCUGUACCUCAUCUACUC (siRNA; chemistry not fully specified) [YC12]”, the “KD (%) TNF-α” value in series [1] (setting [5]) came out at 43.60%; in series [1] (setting [6]), 64.37%; in series [1] (setting [7]), 17.06%; in series [1] (setting [8]), 21.66%; in series [1] (setting [9]), 15.91%. The “Relative effect of siRNA, paw score” value in series [4] (group TNF #6) is on record as “Overall low paw score. YC12”.

Consider “GCCUGUAGCCCAUGUUGUA (chemistry not given here) [TNF-α-2]”, for which the “RA progression by paw score at week 8 (FIG. 4)” value in series [4] is “delayed RA progression”.

On to “GCGUGGAGCUGAGAGAUAA (siRNA; delivered as complex with delivery-enhancing peptide, further chemistry not given here) [YC11]”, for which the “KD (%) TNF-α” value was determined as 13.70% in series [1] (setting [7]), 21.09% in series [1] (setting [8]) and 33.10% in series [1] (setting [9]).

Regarding UAGGGUCGGAACCCAAGCUUA [LC20], the “Relative protein expression level of IFN-γ” value in series [3] is on record as “Background”. Also, the “Relative protein expression level of IL-12” value in series [3] was “Background”. Also, the “Relative protein expression level of INF-α” value in series [3] was “Background”. Besides, the “interferon response (ELISA)” value in series [3] is on record as “no interferon response”. For the same substance, the “TNF-α knockdown activity (FIG. 6-C)” value in series [1] (absence of PN73, 0-2.5 nM) is “little knockdown activity”. The “KD (%) TNF-α” value in series [1] (setting [5]) is reported as 42.68%; in series [1] (setting [6]), 71.12%; in series [1] (setting [7]) it was −3.80%; in series [1] (setting [8]), 10.72%; in series [1] (setting [9]), 26.53%. Further, in series [1] (siRNA complexed with PN73 1:1, 0-2.5 nM), the “decrease in TNF-α gene expression relative to Qneg control (FIG. 6-B)” value is about 30%. The “delay in RA progression relative to lower doses” value in series [4] (2 mg/kg LC20, PN73 1:5) is listed as “greatest relative observed delay in RA progression”. Further, the “Relative effect of siRNA, effectiveness relative to Ramicade” value in series [4] (group TNF #1 (LC20, Ramicade, PBS)) is “LC20 is as effective as”. In addition, the “Relative effect of siRNA, paw score” value in series [4] (group TNF #4) is listed as “Overall low paw score”; in series [4] (group TNF #6), “Overall low paw score. YC12”. Besides, the “Relative effect of siRNA, effectiveness relative to Ramicade by week 8” value in series [4] (group TNF #7) was “LC20 and TNF-α9 are more”. Besides, in series [4] (group TNF #7), the “Relative effect of siRNA, effectiveness relative to Ramicade by week 11” value is “week 8; LC20 is equally”. For the same substance, the “RA progression by paw score at week 8 (FIG. 4)” value in series [4] was “delayed RA progression”.
